Experimental data taken from US8410153B2, “Naphthalene isoxazoline invertebrate pest control agents” (E.I. du Pont de Nemours and Company, priority 2007, dated 2013).

Assays:
Format in all cases: in vivo
[1] = test system: western flower thrips (Frankliniella occidentalis); assay: Test E: control of western flower thrips on Soleil bean plant, contact and/or systemic; conditions: held 6 days
Procedure, shortened: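 5–7-day-old Soleil bean plants were sprayed at 250 or 50 ppm in 10% acetone/90% water with 300 ppm X-77 surfactant, three replicates. After drying 1 h, 22–27 adult thrips were added per unit. Mortality and plant damage were rated after 6 days at 25 °C and 45–55% RH.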

[2] = test system: fall armyworm (Spodoptera frugiperda); assay: Test B: control of fall armyworm on corn (maize) plant, foliar spray; conditions: sprayed at 50 ppm
Procedure: Test compounds were formulated using a solution containing 10% acetone, 90% water and 300 ppm X-77™ Spreader Lo-Foam Formula non-ionic surfactant containing alkylarylpolyoxyethylene, free fatty acids, glycols and isopropanol (Loveland Industries, Inc. Greeley, Colo., USA). The formulated compounds were applied in 1 mL of liquid through a SUJ2 atomizer nozzle with ⅛ JJ custom body (Spraying Systems Co. Wheaton, Ill., USA) positioned 1.27 cm (0.5 inches) above the top of each test unit. All experimental compounds in these tests were sprayed at 50 ppm, and the test was replicated three times. After spraying of the formulated test compound, each test unit was allowed to dry for 1 h and then a black, screened cap was placed on top. The test units were held for 6 days in a growth chamber at 25° C. and 70% relative humidity. Plant feeding damage was then visually assessed based on foliage consumed, and a pest mortality rating was also counted and calculated for each test unit.
For evaluating control of fall armyworm (Spodoptera frugiperda) the test unit consisted of a small open container with a 4-5-day-old corn (maize) plant inside. This was pre-infested (using a core sampler) with 10-15 1-day-old larvae on a piece of insect diet. Test compounds were formulated and sprayed at 50 ppm as described for Test A and replicated three times. After spraying, the test units were maintained in a growth chamber and then the control efficacy was rated for each test unit as described for Test A.

[3] = test system: diamondback moth (Plutella xylostella); assay: Test A: control of diamondback moth on radish plant, foliar spray; conditions: sprayed at 50 ppm, held 6 days
Procedure, shortened: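 Radish plants 12–14 days old, pre-infested with about 50 neonate larvae, sprayed at 50 ppm in 10% acetone/water with 300 ppm X-77 surfactant; three replicates. After 6 days at 25° C and 70% RH, feeding damage was scored visually and mortality counted.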

Measured: levels of control efficacy (20% or less feeding damage or 80% or more mortality)

CNC(=O)CNC(=O)c1ccc(C2=NOC(c3cc(C(F)(F)F)cc(C(F)(F)F)c3)(C(F)(F)F)C2)c2ccccc12 (stereo not drawn) [Compound 105]
very good to excellent: [1]; sprayed at 50 ppm | [2] | [3]

CC(C)NC(=O)C(C)NC(=O)c1ccc(C2=NOC(c3cc(Cl)cc(Cl)c3)(C(F)(F)F)C2)c2ccccc12 (mixture of isomers) [Compound 33]
very good to excellent: [1]; sprayed at 50 ppm | [1]; sprayed at 250 ppm | [2] | [3]

CC(CO)NC(=O)c1ccc(C2=NOC(c3cc(Cl)cc(Cl)c3)(C(F)(F)F)C2)c2ccccc12 (mixture of isomers) [Compound 31]
very good to excellent: [1]; sprayed at 50 ppm | [1]; sprayed at 250 ppm | [2] | [3]

C[S+]([O-])CCNC(=O)c1ccc(C2=NOC(c3cc(F)cc(C(F)(F)F)c3)(C(F)(F)F)C2)c2ccccc12 (mixture of isomers) [Compound 133]
very good to excellent: [1]; sprayed at 50 ppm | [1]; sprayed at 250 ppm | [2] | [3]

CSCC(C)NC(=O)c1ccc(C2=NOC(c3cc(Cl)cc(Cl)c3)(C(F)(F)F)C2)c2ccccc12 (mixture of isomers) [Compound 29]
very good to excellent: [1]; sprayed at 50 ppm | [1]; sprayed at 250 ppm | [2] | [3]

CS(=O)(=O)CCNC(=O)c1ccc(C2=NOC(c3cc(F)cc(C(F)(F)F)c3)(C(F)(F)F)C2)c2ccccc12 (racemic) [Compound 134]
very good to excellent: [1]; sprayed at 50 ppm | [1]; sprayed at 250 ppm | [2] | [3]

CCCNC(=O)CNC(=O)c1ccc(C2=NOC(c3cc(C(F)(F)F)cc(C(F)(F)F)c3)(C(F)(F)F)C2)c2ccccc12 (stereo not drawn) [Compound 101]
very good to excellent: [1]; sprayed at 50 ppm | [2] | [3]

CC(C)NC(=O)CNC(=O)c1ccc(C2=NOC(c3cc(Br)cc(C(F)(F)F)c3)(C(F)(F)F)C2)c2ccccc12 (racemic) [Compound 53]
very good to excellent: [1]; sprayed at 50 ppm | [1]; sprayed at 250 ppm | [2] | [3]

CC(NC(=O)c1ccc(C2=NOC(c3cc(Cl)cc(Cl)c3)(C(F)(F)F)C2)c2ccccc12)C(=O)NCC(F)(F)F (mixture of isomers) [Compound 16]
very good to excellent: [1]; sprayed at 50 ppm | [1]; sprayed at 250 ppm | [2] | [3]

O=C(CNC(=O)c1ccc(C2=NOC(c3cc(Cl)cc(C(F)(F)F)c3)(C(F)(F)F)C2)c2ccccc12)NCC(F)(F)F (stereo not drawn) [Compound 62]
very good to excellent: [1]; sprayed at 50 ppm | [1]; sprayed at 250 ppm | [2] | [3]

CC(NC(=O)c1ccc(C2=NOC(c3cc(C(F)(F)F)cc(C(F)(F)F)c3)(C(F)(F)F)C2)c2ccccc12)C(=O)NCC(F)(F)F (stereo not drawn) [Compound 85]
very good to excellent: [1]; sprayed at 50 ppm | [1]; sprayed at 250 ppm | [2] | [3]

CNC(=O)C(C)NC(=O)c1ccc(C2=NOC(c3cc(F)cc(C(F)(F)F)c3)(C(F)(F)F)C2)c2ccccc12 (mixture of isomers) [Compound 138]
very good to excellent: [1]; sprayed at 50 ppm | [2] | [3]

CC(O)CNC(=O)c1ccc(C2=NOC(c3cccc(C(F)(F)F)c3)(C(F)(F)F)C2)c2ccccc12 (mixture of isomers) [Compound 36]
very good to excellent: [1]; sprayed at 250 ppm | [2] | [3]

CCC(CC)NC(=O)CNC(=O)c1ccc(C2=NOC(c3cc(Cl)cc(Cl)c3)(C(F)(F)F)C2)c2ccccc12 (stereo not drawn) [Compound 25]
very good to excellent: [1]; sprayed at 250 ppm | [2] | [3]

CCSCCCNC(=O)c1ccc(C2=NOC(c3cccc(C(F)(F)F)c3)(C(F)(F)F)C2)c2ccccc12 (racemic) [Compound 48]
very good to excellent: [1]; sprayed at 250 ppm | [2] | [3]

CC(C)(C)CNC(=O)CNC(=O)c1ccc(C2=NOC(c3cc(Cl)cc(C(F)(F)F)c3)(C(F)(F)F)C2)c2ccccc12 (stereo not drawn) [Compound 120]
very good to excellent: [1]; sprayed at 50 ppm | [1]; sprayed at 250 ppm | [2] | [3]

O=C(CNC(=O)c1ccc(C2=NOC(c3cc(F)cc(C(F)(F)F)c3)(C(F)(F)F)C2)c2ccccc12)NCC(F)(F)F (racemic) [Compound 135]
very good to excellent: [1]; sprayed at 250 ppm | [2] | [3]

COCC(C)NC(=O)c1ccc(C2=NOC(c3cccc(C(F)(F)F)c3)(C(F)(F)F)C2)c2ccccc12 (mixture of isomers) [Compound 47]
very good to excellent: [1]; sprayed at 50 ppm | [1]; sprayed at 250 ppm | [2] | [3]

CCNC(=O)CNC(=O)c1ccc(C2=NOC(c3cc(Br)cc(C(F)(F)F)c3)(C(F)(F)F)C2)c2ccccc12 (racemic) [Compound 144]
very good to excellent: [1]; sprayed at 50 ppm | [2] | [3]

CS(=O)(=O)CCNC(=O)c1ccc(C2=NOC(c3cc(Cl)cc(Cl)c3)(C(F)(F)F)C2)c2ccccc12 (stereo not drawn) [Compound 20]
very good to excellent: [1]; sprayed at 50 ppm | [1]; sprayed at 250 ppm | [2] | [3]

CC(C)(O)CNC(=O)c1ccc(C2=NOC(c3cccc(C(F)(F)F)c3)(C(F)(F)F)C2)c2ccccc12 (racemic) [Compound 43]
very good to excellent: [1]; sprayed at 250 ppm | [2] | [3]
